Holding throughout (assay): level (log10 ratio to DMSO vehicle control); higher = higher biomarker level / cell amount than vehicle control
Compound in assay [1]: CCOC(=O)CC(=O)C(F)(F)C(F)(F)F [Ethyl pentafluoropropionyl acetate] (in DMSO)
As to the method: (§1)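 BioMAP Diversity Plus panel of 12 human primary cell co-culture systems (3C, 4H, LPS, SAg, BT, BF4T, BE3C, CASM3C, HDF3CGF, KF3CT, MyoF, Mphg). Compounds were added 1 h before stimulation and left for 24 h (MyoF 48 h; BT 72 h for soluble read-outs or 6 d for IgG). Biomarkers were read by ELISA, cytotoxicity by SRB, PBMC viability and proliferation by Alamar Blue. Each well value was divided by the mean of 8 DMSO control wells on the same plate and log10 transformed; duplicate blinded samples were tested at 4 concentrations.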

Compound in assay [2]: OCC(F)(F)OC(F)(F)C(F)(F)OC(F)(F)C(F)(F)OC(F)(F)CO [1H,1H,11H,11H-Perfluorotetraethylene glycol] (in DMSO)
As to the method: as §1

Compound in assay [3]: O=S(=O)(O)C(F)(F)C(F)(F)C(F)(F)C(F)(F)C(F)(F)C(F)(F)C(F)(F)F [Perfluoroheptanesulfonic acid] (in DMSO)
As to the method:
as §1

Compound in assay [4]: O=C(O)C=C(C(F)(F)F)C(F)(F)F [3,3-Bis(trifluoromethyl)-2-propenoic acid] (in DMSO)
How it is done: as §1

Compound in assay [5]: OCCC(F)(F)C(F)(F)C(F)(F)C(F)(F)F [4:2 Fluorotelomer alcohol] (in DMSO)
As to the method: as §1

Compound in assay [6]: O=C(O)C(F)(F)C(F)(F)C(F)(F)C(F)(F)C(F)(F)C(F)(F)C(F)(F)C(F)(F)C(F)(F)C(F)(F)F [Perfluoroundecanoic acid] (in DMSO)
Conditions: 6700 nM. How it is done:
as §1

Compound in assay [7]: O=S(=O)(O)CCC(F)(F)C(F)(F)C(F)(F)C(F)(F)C(F)(F)C(F)(F)C(F)(F)C(F)(F)F [8:2 Fluorotelomer sulfonic acid] (in DMSO)
How it is done:
as §1

The values that follow come from the supplement of paper PMC10331698.

± gives the standard deviation of the averaged measurements.

Turning to HDF3CGF:EGFR, the “level (log10)” value in assay [1] (6700 nM) was -0.014 ± 0.0057; in assay [1] (20000 nM) it was -0.018 ± 0.017; in assay [1] (60000 nM), 0.0125 ± 0.037; in assay [2] (6700 nM) it was -0.008 ± 0.0085; in assay [2] (20000 nM), -0.0005 ± 0.025; in assay [2] (60000 nM), 0.013 ± 0.021. In addition, the “level (log10)” value was 0.0085 ± 0.026 in assay [3] (1500 nM); -0.024 ± 0.059 in assay [3] (4400 nM); -0.033 ± 0.057 in assay [3] (13000 nM); 0.0245 ± 0.11 in assay [3] (40000 nM); -0.02 ± 0.041 in assay [4] (6700 nM); -0.039 ± 0.05 in assay [4] (20000 nM). Moreover, the “level (log10)” value is -0.0145 ± 0.0035 in assay [4] (60000 nM); -0.0285 ± 0.028 in assay [5] (6700 nM); -0.001 ± 0.072 in assay [5] (20000 nM); 0.0275 ± 0.053 in assay [5] (60000 nM); -0.162 ± 0.0014 in assay [6]; -0.011 ± 0.033 in assay [7] (6700 nM). Also, the “level (log10)” value in assay [7] (20000 nM) was -0.0455 ± 0.03; in assay [7] (60000 nM), -0.101 ± 0.026.
For HDF3CGF:M-CSF, the “level (log10)” value was -0.022 ± 0.017 in assay [1] (6700 nM); -0.034 ± 0.037 in assay [1] (20000 nM); -0.0135 ± 0.094 in assay [1] (60000 nM); -0.036 ± 0.083 in assay [2] (6700 nM); -0.121 ± 0.098 in assay [2] (20000 nM); -0.261 ± 0.046 in assay [2] (60000 nM). In addition, the “level (log10)” value in assay [3] (1500 nM) is -0.0025 ± 0.011; in assay [3] (4400 nM), 0.0075 ± 0.019; in assay [3] (13000 nM), 0.003 ± 0.016; in assay [3] (40000 nM) it was 0 ± 0.034; in assay [4] (6700 nM) it was -0.0595 ± 0.0078; in assay [4] (20000 nM) it was -0.072 ± 0.042. Besides, the “level (log10)” value in assay [4] (60000 nM) is -0.051 ± 0.014; in assay [5] (6700 nM), -0.027 ± 0.067; in assay [5] (20000 nM), -0.035 ± 0.023; in assay [5] (60000 nM), -0.004 ± 0.0057; in assay [6], -0.0425 ± 0.015; in assay [7] (6700 nM), -0.0035 ± 0.056. The “level (log10)” value is -0.014 ± 0.038 in assay [7] (20000 nM) and -0.0685 ± 0.04 in assay [7] (60000 nM).
Take HDF3CGF:MMP-1: the “level (log10)” value in assay [1] (6700 nM) was 0.01 ± 0.028; in assay [1] (20000 nM) it was 0.022 ± 0.0071; in assay [1] (60000 nM) it was 0.029 ± 0.034; in assay [2] (6700 nM), 0.0265 ± 0.0092; in assay [2] (20000 nM) it was 0.0845 ± 0.021; in assay [2] (60000 nM), 0.095 ± 0.0014. The “level (log10)” value was 0.0235 ± 0.013 in assay [3] (1500 nM); 0.013 ± 0.014 in assay [3] (4400 nM); 0.0205 ± 0.018 in assay [3] (13000 nM); 0.009 ± 0.024 in assay [3] (40000 nM); -0.015 ± 0.0014 in assay [4] (6700 nM); -0.013 ± 0.017 in assay [4] (20000 nM). The “level (log10)” value was -0.001 ± 0.0099 in assay [4] (60000 nM); -0.025 ± 0.0057 in assay [5] (6700 nM); -0.0075 ± 0.011 in assay [5] (20000 nM); 0.0035 ± 0.0035 in assay [5] (60000 nM); -0.004 ± 0.0057 in assay [6]; 0.0205 ± 0.012 in assay [7] (6700 nM). Besides, the “level (log10)” value is -0.017 ± 0.028 in assay [7] (20000 nM) and -0.0835 ± 0.036 in assay [7] (60000 nM).
HDF3CGF:PAI-I: the “level (log10)” value in assay [1] (6700 nM) was -0.01 ± 0.025; in assay [1] (20000 nM), 0.004 ± 0.024; in assay [1] (60000 nM), 0.031 ± 0.062; in assay [2] (6700 nM), -0.0265 ± 0.033; in assay [2] (20000 nM), -0.0285 ± 0.013; in assay [2] (60000 nM) it was -0.036 ± 0.027. For the same test system, the “level (log10)” value was 0.02 ± 0.073 in assay [3] (1500 nM); 0.0135 ± 0.049 in assay [3] (4400 nM); -0.0315 ± 0.046 in assay [3] (13000 nM); -0.0325 ± 0.011 in assay [3] (40000 nM); -0.0265 ± 0.015 in assay [4] (6700 nM); -0.069 ± 0.0099 in assay [4] (20000 nM). Further, the “level (log10)” value in assay [4] (60000 nM) was -0.153 ± 0.025; in assay [5] (6700 nM), -0.057 ± 0.086; in assay [5] (20000 nM), 0.008 ± 0.072; in assay [5] (60000 nM), -0.0255 ± 0.076; in assay [6] it was -0.011 ± 0.0057; in assay [7] (6700 nM), 0.018 ± 0.034. Also, the “level (log10)” value in assay [7] (20000 nM) was -0.002 ± 0.021; in assay [7] (60000 nM) it was 0.0015 ± 0.0078.
In the case of HDF3CGF:Proliferation 72hr, the “level (log10)” value is -0.019 ± 0.073 in assay [1] (6700 nM); -0.017 ± 0.092 in assay [1] (20000 nM); 0.036 ± 0.017 in assay [1] (60000 nM); -0.125 ± 0.1 in assay [2] (6700 nM); -0.178 ± 0.12 in assay [2] (20000 nM); -0.358 ± 0.064 in assay [2] (60000 nM). The “level (log10)” value in assay [3] (1500 nM) was -0.042 ± 0.088; in assay [3] (4400 nM), -0.02 ± 0.031; in assay [3] (13000 nM) it was 0.076 ± 0.021; in assay [3] (40000 nM), 0.107 ± 0.0042; in assay [4] (6700 nM), -0.0325 ± 0.021; in assay [4] (20000 nM) it was -0.086 ± 0.069. For the same test system, the “level (log10)” value in assay [4] (60000 nM) is -0.24 ± 0.066; in assay [5] (6700 nM) it was -0.014 ± 0.045; in assay [5] (20000 nM) it was -0.022 ± 0.0014; in assay [5] (60000 nM), 0.033 ± 0.027; in assay [6], -0.557 ± 0.11; in assay [7] (6700 nM) it was 0.0275 ± 0.044. The “level (log10)” value was 0.0785 ± 0.06 in assay [7] (20000 nM) and 0.107 ± 0.0014 in assay [7] (60000 nM).
For the test system HDF3CGF:SRB, the “level (log10)” value was 0.007 ± 0.027 in assay [1] (6700 nM); -0.0005 ± 0.032 in assay [1] (20000 nM); 0.0025 ± 0.021 in assay [1] (60000 nM); -0.0225 ± 0.043 in assay [2] (6700 nM); -0.023 ± 0.1 in assay [2] (20000 nM); -0.0555 ± 0.077 in assay [2] (60000 nM). Further, the “level (log10)” value was -0.042 ± 0.028 in assay [3] (1500 nM); -0.045 ± 0.011 in assay [3] (4400 nM); -0.0065 ± 0.015 in assay [3] (13000 nM); 0.035 ± 0.1 in assay [3] (40000 nM); -0.014 ± 0.028 in assay [4] (6700 nM); 0.0125 ± 0.021 in assay [4] (20000 nM). The “level (log10)” value in assay [4] (60000 nM) is -0.022 ± 0.02; in assay [5] (6700 nM), -0.0105 ± 0.015; in assay [5] (20000 nM) it was -0.022 ± 0.0028; in assay [5] (60000 nM), 0.011 ± 0.013; in assay [6], 0.0395 ± 0.011; in assay [7] (6700 nM) it was -0.044 ± 0.064. In addition, the “level (log10)” value in assay [7] (20000 nM) is -0.017 ± 0.1; in assay [7] (60000 nM), 0.168 ± 0.037.
